In ChEMBL document CHEMBL1201862, “PubChem BioAssay data set” (2004):
One block for each compound: values may come before it. Activity calls are given as the source filed them.

Experiments:
[1] = molecular target: DNA dC->dU-editing enzyme APOBEC-3A (Homo sapiens, UniProt P31941); test: SAR analysis of small molecule inhibitors of APOBEC3A DNA Deaminase via a fluorescence-based single-stranded DNA deaminase assay - Set 2.; format: functional; conditions: read-out: IC50_Mean
[2] = molecular target: DNA dC->dU-editing enzyme APOBEC-3G (Homo sapiens, UniProt Q9HC16); test: SAR analysis of small molecule inhibitors of APOBEC3G DNA Deaminase via a fluorescence-based single-stranded DNA deaminase assay - Set 2.; format: functional; conditions: read-out: IC50_Mean
Chain of DNA dC->dU-editing enzyme APOBEC-3G (Q9HC16 whole entry): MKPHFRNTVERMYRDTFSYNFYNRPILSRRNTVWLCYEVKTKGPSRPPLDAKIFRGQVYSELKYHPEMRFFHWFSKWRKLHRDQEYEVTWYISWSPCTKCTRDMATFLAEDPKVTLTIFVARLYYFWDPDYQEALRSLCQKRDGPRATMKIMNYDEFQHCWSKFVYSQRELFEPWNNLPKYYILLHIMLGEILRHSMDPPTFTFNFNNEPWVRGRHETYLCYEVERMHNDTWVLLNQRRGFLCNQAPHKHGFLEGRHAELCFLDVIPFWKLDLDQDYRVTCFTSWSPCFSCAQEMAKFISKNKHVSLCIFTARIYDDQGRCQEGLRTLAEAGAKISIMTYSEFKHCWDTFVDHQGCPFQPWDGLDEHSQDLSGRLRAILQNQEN

[3] = molecular target: Cysteine protease ATG4B (Homo sapiens, UniProt Q9Y4P1); format: functional;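 also: Fluorescence-based dose-response confirmation assay measuring inhibition of ATG4B activity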
Chain of Cysteine protease ATG4B (Q9Y4P1 whole entry): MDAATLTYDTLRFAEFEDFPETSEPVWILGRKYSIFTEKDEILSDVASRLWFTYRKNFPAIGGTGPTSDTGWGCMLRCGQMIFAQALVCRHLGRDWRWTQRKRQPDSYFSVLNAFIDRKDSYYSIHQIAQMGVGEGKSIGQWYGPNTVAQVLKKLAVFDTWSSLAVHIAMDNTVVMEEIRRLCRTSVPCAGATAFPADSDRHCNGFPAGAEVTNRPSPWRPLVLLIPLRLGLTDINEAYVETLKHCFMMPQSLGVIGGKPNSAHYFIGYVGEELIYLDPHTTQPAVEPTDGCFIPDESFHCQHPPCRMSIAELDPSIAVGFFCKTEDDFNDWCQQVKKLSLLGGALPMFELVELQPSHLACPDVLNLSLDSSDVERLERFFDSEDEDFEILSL

[4] = molecular target: Glucose-6-phosphate 1-dehydrogenase (Homo sapiens, UniProt P11413); test: human G6PD enzyme inhibitors, dose response, selectivity assay for P. falciparum G6PD inhibitor project, biochemical, fluorescence (AID 504792); format: functional
Chain of Glucose-6-phosphate 1-dehydrogenase (P11413 whole entry): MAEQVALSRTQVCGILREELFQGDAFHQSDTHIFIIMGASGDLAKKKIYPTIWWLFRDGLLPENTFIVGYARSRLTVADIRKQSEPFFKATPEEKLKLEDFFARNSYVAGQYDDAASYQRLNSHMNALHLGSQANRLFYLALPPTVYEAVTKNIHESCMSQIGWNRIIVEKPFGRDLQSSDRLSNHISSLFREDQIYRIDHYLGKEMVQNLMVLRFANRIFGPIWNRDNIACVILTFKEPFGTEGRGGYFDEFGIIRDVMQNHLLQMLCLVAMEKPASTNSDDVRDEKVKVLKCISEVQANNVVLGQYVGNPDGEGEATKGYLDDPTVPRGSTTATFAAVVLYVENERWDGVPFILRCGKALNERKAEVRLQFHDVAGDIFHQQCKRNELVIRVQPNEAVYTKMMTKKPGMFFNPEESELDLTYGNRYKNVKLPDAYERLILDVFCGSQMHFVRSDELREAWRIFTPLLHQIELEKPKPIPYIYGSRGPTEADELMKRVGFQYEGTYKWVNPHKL

[5] = molecular target: Phospholipase A2 (Homo sapiens, UniProt P04054); format: functional;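 also: confirmatory dose-response counterscreen on phospholipase A2, testing hits that came from an ultra-high-throughput screen for ATG4B inhibitors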
Chain of Phospholipase A2 (P04054 whole entry): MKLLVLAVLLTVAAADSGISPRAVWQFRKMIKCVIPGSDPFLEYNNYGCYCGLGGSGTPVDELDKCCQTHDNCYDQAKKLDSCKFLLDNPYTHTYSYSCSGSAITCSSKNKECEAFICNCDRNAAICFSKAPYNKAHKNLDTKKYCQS

[6] = molecular target: T1, Apoptotic protease-activating factor 1 (Homo sapiens, UniProt O14727); test: SAR analysis of small molecule Activators of Apaf-1 in a Fluorescent assay.; format: functional; conditions: read-out: EC50_Mean;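 also: caspase-3 cleavage of fluorogenic Rh110 DEVD substrate downstream of apoptosome activation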
T1 sequence (O14727 whole entry): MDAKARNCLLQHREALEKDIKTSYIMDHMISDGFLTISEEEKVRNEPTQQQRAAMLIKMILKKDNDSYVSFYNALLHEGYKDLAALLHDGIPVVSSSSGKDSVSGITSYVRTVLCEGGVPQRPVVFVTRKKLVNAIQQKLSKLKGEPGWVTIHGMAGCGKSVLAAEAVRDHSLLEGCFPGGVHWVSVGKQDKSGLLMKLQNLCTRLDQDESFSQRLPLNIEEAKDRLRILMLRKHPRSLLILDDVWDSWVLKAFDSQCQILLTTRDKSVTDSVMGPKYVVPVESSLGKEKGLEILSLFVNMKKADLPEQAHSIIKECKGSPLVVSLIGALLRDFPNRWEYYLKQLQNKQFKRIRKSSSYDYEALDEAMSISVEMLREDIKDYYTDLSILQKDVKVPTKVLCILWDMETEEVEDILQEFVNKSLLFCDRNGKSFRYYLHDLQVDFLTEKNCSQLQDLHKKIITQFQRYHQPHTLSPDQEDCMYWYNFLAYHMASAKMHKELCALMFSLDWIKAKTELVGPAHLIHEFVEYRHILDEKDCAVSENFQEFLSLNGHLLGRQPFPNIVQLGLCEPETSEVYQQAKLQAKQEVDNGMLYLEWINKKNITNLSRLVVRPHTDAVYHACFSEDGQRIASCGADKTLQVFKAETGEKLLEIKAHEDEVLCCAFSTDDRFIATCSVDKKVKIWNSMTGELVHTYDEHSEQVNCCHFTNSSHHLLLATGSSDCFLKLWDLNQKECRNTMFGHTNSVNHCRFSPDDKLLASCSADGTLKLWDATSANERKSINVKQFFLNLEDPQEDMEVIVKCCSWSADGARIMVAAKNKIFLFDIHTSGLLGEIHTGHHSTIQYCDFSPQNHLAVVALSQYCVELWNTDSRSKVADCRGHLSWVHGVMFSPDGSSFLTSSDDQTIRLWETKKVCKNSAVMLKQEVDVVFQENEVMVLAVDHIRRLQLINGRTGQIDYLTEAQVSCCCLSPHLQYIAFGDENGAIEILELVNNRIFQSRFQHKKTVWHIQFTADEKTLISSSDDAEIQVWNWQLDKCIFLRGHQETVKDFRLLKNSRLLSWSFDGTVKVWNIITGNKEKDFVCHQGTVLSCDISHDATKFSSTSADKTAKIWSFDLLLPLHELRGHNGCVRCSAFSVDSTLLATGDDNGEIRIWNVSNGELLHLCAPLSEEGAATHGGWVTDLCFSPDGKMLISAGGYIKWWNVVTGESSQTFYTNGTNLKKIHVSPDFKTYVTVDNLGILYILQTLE

[7] = HEp-2 cell cytotoxicity, dose response, cytotoxicity control for RSV inhibitor project, HTS (AID 2410); format: functional; conditions: human respiratory syncytial virus
[8] = molecular target: T2, High affinity choline transporter 1 (Homo sapiens, UniProt Q9GZV3); test: CHT inhibitors, dose response, cell-based, 5-point CRC, membrane potential dye (AID 504840); format: functional
T2 sequence (Q9GZV3 whole entry): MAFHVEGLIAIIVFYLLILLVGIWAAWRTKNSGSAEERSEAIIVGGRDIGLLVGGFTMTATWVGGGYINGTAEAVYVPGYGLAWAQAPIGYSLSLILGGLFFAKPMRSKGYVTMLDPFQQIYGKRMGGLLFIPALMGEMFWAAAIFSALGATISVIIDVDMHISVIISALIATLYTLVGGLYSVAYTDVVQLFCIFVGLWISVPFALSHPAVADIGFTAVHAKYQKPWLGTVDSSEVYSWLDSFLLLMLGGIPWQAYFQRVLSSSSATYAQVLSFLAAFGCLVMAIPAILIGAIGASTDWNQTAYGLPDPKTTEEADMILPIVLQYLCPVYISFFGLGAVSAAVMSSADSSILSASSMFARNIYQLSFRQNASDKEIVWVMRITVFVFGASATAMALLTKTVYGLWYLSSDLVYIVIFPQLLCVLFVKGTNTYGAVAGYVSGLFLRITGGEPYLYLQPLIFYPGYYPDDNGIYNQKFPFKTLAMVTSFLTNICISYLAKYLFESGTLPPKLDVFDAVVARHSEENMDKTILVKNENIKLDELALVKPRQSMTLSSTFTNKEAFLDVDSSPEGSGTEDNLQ

[9] = molecular target: T2, High affinity choline transporter 1; test: CHT inhibitors, dose response, cell-based, 10-point CRC, membrane potential dye (AID 588401); format: functional;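 also: membrane potential dye fluorescence of choline-evoked depolarization via CHT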
[10] = molecular target: Voltage-dependent T-type calcium channel subunit alpha-1H (Homo sapiens, UniProt O95180); format: functional;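 also: channel activity triggered by adding a high calcium stimulation buffer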
Chain of Voltage-dependent T-type calcium channel subunit alpha-1H (O95180 whole entry): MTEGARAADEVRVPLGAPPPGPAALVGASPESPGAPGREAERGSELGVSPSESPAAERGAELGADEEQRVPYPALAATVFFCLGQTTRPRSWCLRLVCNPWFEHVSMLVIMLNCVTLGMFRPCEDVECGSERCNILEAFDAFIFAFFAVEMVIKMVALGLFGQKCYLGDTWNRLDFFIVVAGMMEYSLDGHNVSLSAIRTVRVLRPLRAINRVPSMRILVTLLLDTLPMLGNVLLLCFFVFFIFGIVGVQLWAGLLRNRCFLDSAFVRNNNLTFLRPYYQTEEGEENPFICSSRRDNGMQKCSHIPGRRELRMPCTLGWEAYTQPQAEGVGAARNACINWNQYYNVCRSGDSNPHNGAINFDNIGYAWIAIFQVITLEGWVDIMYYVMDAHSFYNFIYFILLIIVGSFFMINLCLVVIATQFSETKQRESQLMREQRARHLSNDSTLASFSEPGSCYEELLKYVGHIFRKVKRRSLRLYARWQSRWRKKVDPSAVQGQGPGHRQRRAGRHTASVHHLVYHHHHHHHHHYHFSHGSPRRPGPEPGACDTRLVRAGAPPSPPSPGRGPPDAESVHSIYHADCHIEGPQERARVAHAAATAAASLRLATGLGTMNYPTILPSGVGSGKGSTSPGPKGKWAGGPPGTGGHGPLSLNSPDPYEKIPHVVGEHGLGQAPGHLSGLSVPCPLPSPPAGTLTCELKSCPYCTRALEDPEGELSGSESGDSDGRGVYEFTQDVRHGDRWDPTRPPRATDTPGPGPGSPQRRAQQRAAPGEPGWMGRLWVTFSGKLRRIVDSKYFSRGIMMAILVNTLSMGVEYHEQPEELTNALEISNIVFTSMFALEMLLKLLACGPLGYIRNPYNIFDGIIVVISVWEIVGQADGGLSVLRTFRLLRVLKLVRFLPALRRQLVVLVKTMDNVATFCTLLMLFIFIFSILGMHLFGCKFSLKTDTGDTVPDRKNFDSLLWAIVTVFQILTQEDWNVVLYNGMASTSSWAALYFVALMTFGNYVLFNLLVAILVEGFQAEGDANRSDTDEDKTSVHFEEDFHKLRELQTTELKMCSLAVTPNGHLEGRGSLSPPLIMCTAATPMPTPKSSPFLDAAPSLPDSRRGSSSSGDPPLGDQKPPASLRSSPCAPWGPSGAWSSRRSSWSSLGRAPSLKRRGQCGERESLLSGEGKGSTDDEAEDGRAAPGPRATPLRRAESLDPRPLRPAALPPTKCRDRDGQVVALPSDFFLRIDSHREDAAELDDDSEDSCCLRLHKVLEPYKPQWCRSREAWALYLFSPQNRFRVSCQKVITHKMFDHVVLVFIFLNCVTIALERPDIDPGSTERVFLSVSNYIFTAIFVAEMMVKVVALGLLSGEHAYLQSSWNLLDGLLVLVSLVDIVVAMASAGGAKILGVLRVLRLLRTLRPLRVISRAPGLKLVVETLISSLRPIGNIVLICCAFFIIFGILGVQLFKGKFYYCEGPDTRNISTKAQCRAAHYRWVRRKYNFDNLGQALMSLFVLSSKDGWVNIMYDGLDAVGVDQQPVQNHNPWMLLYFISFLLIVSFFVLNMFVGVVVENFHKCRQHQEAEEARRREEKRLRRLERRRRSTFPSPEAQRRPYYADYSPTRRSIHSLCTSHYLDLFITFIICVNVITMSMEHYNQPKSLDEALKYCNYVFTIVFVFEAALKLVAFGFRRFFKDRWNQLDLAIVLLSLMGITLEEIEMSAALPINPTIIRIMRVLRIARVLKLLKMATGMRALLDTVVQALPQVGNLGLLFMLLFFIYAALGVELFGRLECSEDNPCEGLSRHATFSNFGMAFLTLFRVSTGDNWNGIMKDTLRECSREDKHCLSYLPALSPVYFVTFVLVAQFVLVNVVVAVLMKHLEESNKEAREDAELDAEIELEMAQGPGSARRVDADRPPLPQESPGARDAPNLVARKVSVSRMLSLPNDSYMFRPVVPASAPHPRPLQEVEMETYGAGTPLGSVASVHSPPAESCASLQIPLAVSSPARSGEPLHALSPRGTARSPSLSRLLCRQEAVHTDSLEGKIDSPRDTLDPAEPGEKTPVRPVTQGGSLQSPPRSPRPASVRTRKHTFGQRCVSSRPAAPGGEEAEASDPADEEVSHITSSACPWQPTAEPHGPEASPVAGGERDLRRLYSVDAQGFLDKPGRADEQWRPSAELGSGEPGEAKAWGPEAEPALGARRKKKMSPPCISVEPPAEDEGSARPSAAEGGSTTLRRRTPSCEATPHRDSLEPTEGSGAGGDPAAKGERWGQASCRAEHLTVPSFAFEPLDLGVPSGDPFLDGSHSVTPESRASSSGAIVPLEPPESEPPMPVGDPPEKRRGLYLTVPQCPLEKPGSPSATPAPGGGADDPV

[11] = molecular target: Melanocortin receptor 4 (Homo sapiens, UniProt P32245); format: functional, cell-based;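 also: Cell-based assay with luminescence read-out, confirmatory dose-response testing for agonist activity of biased ligands at MC4R; human U2OS cells with tagged receptor and beta-arrestin; potency of agonists that increase receptor coupling to beta-arrestin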
Chain of Melanocortin receptor 4 (P32245 whole entry): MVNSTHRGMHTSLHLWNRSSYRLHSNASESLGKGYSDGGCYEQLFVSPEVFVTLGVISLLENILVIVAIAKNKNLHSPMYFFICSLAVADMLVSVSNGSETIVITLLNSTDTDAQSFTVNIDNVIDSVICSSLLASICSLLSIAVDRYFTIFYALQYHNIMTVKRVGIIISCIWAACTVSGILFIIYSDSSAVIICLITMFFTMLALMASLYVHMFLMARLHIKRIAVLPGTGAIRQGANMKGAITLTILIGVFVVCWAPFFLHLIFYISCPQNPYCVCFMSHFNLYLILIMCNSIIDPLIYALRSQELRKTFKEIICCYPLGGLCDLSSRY

Chain of DNA dC->dU-editing enzyme APOBEC-3A (P31941 whole entry): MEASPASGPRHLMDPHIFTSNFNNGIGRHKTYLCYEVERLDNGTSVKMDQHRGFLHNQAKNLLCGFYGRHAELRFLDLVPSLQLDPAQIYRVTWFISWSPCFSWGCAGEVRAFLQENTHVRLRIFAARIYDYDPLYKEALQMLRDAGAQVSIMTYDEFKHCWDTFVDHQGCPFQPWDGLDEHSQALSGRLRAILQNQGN

SMILES: CN(Cc1ccccc1)C(=O)c1nn2cccnc2c1Cl
- IC50 [1]: 73.8 µM (inactive)
- IC50 [2]: > 99 µM (inactive)

SMILES: Clc1cccc(Cl)c1CNc1ccc(N2CCCC2)cc1
- IC50 [3]: 11.9 µM (active)
- IC50 [4]: > 80 µM (inactive)
- IC50 [5]: 7.99 µM (active)

SMILES: CCn1cc(C(=O)NCCCN2CCC(C)CC2)c(=O)c2cc(S(=O)(=O)N(C)C3CCCCC3)ccc21
- IC50 [8]: 7.24 µM (active)
- IC50 [9]: 7.94 µM (active)

Now from value to compound, other results behind:

- EC50 [6]: > 100 µM (inactive)
SMILES: COC(=O)C(C)(N)Cc1c[nH]c2ccccc12 (stereo not given)

- IC50 [3]: 13.5 µM (active)
- IC50 [5]: 7.34 µM (active)
SMILES: O=C(CCCn1c(=S)[nH]c2cc3c(cc2c1=O)OCO3)N1CCN(c2ccc(F)cc2)CC1
- CC50 [7]: 26.2 µM (active)

- IC50 [8]: 1.55 µM (active)
- EC50 [10]: 6.26 µM (active)
- IC50 [9]: 1.26 µM (active)
SMILES: O=C(Nc1nnc(C(F)(F)F)s1)C1COc2ccccc2O1 (stereo not given)

- EC50 [11]: > 89.2 µM (inactive)
SMILES: Cc1ccc2[nH]c(=O)c3cc(C(=O)N(CCCOC(C)C)Cc4ccco4)sc3c2c1
